Values of other authors in US11503831B2, “Arthropoda repellent composition” (SanderStrothmann GmbH, priority 2019, dated 2022).

Details: in vivo

## CCN(CC)C(=O)c1cccc(C)c1 [N,N-diethyl toluamide, N,N′-diethyl toluamide]
  Share of topically applied dose absorbed by the skin: approximately 50%
  Time to peak plasma levels: 1 h
